Measured values from the supplement of paper PMC5303821, “Major sulfonate transporter Soa1 in Saccharomyces cerevisiae and considerable substrate diversity in its fungal family” (Nature Communications, 2017).

Columns and labels:
[1] = tested on: Aspergillus nidulans_CBF74694; experiment: maximal growth rate with compound as sole sulfur source (OD600 per h); higher = better growth / uptake of the sulfur source; details: S. cerevisiae S288C/BY sul1Δ sul2Δ soa1Δ with transporter ortholog inserted at SOA1 locus, sulfur-free B medium, 4% glucose, pH 6.5, sole sulfur source
[2] = tested on: Saccharomyces uvarum_SOA2; experiment: as above; details: S. cerevisiae S288C/BY sul1Δ sul2Δ soa1Δ with transporter ortholog inserted at SOA1 locus, sulfur-free B medium, 4% glucose, pH 6.5, sole sulfur source
[3] = tested on: Saccharomyces eubayanus_SOA1; experiment: as above; details: S. cerevisiae S288C/BY sul1Δ sul2Δ soa1Δ with transporter ortholog inserted at SOA1 locus, sulfur-free B medium, 4% glucose, pH 6.5, sole sulfur source
[4] = tested on: Ogataea parapolymorpha_XP_013932458; experiment: as above; details: S. cerevisiae S288C/BY sul1Δ sul2Δ soa1Δ with transporter ortholog inserted at SOA1 locus, sulfur-free B medium, 4% glucose, pH 6.5, sole sulfur source
[5] = tested on: Aspergillus nidulans_CBF80346; experiment: as above; details: S. cerevisiae S288C/BY sul1Δ sul2Δ soa1Δ with transporter ortholog inserted at SOA1 locus, sulfur-free B medium, 4% glucose, pH 6.5, sole sulfur source
[6] = tested on: Ogataea parapolymorpha_XP_013935289; experiment: as above; details: S. cerevisiae S288C/BY sul1Δ sul2Δ soa1Δ with transporter ortholog inserted at SOA1 locus, sulfur-free B medium, 4% glucose, pH 6.5, sole sulfur source
[7] = tested on: Metarhizium robertsii_XP_007821441; experiment: as above; details: S. cerevisiae S288C/BY sul1Δ sul2Δ soa1Δ with transporter ortholog inserted at SOA1 locus, sulfur-free B medium, 4% glucose, pH 6.5, sole sulfur source
[8] = tested on: Saccharomyces uvarum_SOA2; experiment: lag phase before growth; higher = slower start of growth; details: sulfur source concentration 200 µM; S. cerevisiae S288C/BY sul1Δ sul2Δ soa1Δ with transporter ortholog inserted at SOA1 locus; sulfur-free B medium, 4% glucose, pH 6.5, sole sulfur source
Procedure: (§1)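 S. cerevisiae sul1Δ sul2Δ soa1Δ strains expressing 20 fungal SOA1 orthologs (or no transporter, 'soa1 del') were grown in liquid sulfur-free B medium, 4% glucose, pH 6.5 (7 mM K2HPO4). The strains were sulfur-starved for 3 days beforehand. Each sulfur compound was the sole sulfur source at 200 µM (sulfate also at 40 mM). OD600 curves of duplicate cultures were averaged and fitted (logistic / Richards, GroFit) to give maximal growth rate, maximal density and lag phase; temperature not stated.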

[9] = tested on: Metarhizium robertsii_XP_007822519; experiment: as above; details: sulfur source concentration 200 µM; S. cerevisiae S288C/BY sul1Δ sul2Δ soa1Δ with transporter ortholog inserted at SOA1 locus; sulfur-free B medium, 4% glucose, pH 6.5, sole sulfur source
Procedure: as §1

[10] = tested on: Saccharomyces eubayanus_SOA1; experiment: as above; details: S. cerevisiae S288C/BY sul1Δ sul2Δ soa1Δ with transporter ortholog inserted at SOA1 locus, sulfur-free B medium, 4% glucose, pH 6.5, sole sulfur source
Procedure: as §1

[11] = tested on: Saccharomyces eubayanus_SOA2; experiment: as above; details: sulfur source concentration 200 µM; S. cerevisiae S288C/BY sul1Δ sul2Δ soa1Δ with transporter ortholog inserted at SOA1 locus; sulfur-free B medium, 4% glucose, pH 6.5, sole sulfur source
Procedure: as §1

[12] = tested on: Saccharomyces uvarum_SOA1; experiment: as above; details: S. cerevisiae S288C/BY sul1Δ sul2Δ soa1Δ with transporter ortholog inserted at SOA1 locus, sulfur-free B medium, 4% glucose, pH 6.5, sole sulfur source
Procedure: as §1

[13] = tested on: Ogataea parapolymorpha_XP_013935289; experiment: as above; details: S. cerevisiae S288C/BY sul1Δ sul2Δ soa1Δ with transporter ortholog inserted at SOA1 locus, sulfur-free B medium, 4% glucose, pH 6.5, sole sulfur source
Procedure: as §1

[14] = tested on: Saccharomyces cerevisiae_SOA1; experiment: as above; details: S. cerevisiae S288C/BY sul1Δ sul2Δ soa1Δ with transporter ortholog inserted at SOA1 locus, sulfur-free B medium, 4% glucose, pH 6.5, sole sulfur source
Procedure: as §1

[15] = tested on: Aspergillus nidulans_XP_661733; experiment: as above; details: S. cerevisiae S288C/BY sul1Δ sul2Δ soa1Δ with transporter ortholog inserted at SOA1 locus, sulfur-free B medium, 4% glucose, pH 6.5, sole sulfur source
Procedure: as §1

[16] = tested on: Aspergillus nidulans (IAM 2006)_astA; experiment: as above; details: S. cerevisiae S288C/BY sul1Δ sul2Δ soa1Δ with transporter ortholog inserted at SOA1 locus, sulfur-free B medium, 4% glucose, pH 6.5, sole sulfur source
Procedure: as §1

[17] = tested on: Metarhizium robertsii_XP_007823832; experiment: as above; details: S. cerevisiae S288C/BY sul1Δ sul2Δ soa1Δ with transporter ortholog inserted at SOA1 locus, sulfur-free B medium, 4% glucose, pH 6.5, sole sulfur source
Procedure: as §1

[18] = tested on: Aspergillus nidulans_XP_660563; experiment: as above; details: sulfur source concentration 200 µM; S. cerevisiae S288C/BY sul1Δ sul2Δ soa1Δ with transporter ortholog inserted at SOA1 locus; sulfur-free B medium, 4% glucose, pH 6.5, sole sulfur source
Procedure: as §1

[19] = tested on: Aspergillus nidulans_CBF74694; experiment: as above; details: sulfur source concentration 200 µM; S. cerevisiae S288C/BY sul1Δ sul2Δ soa1Δ with transporter ortholog inserted at SOA1 locus; sulfur-free B medium, 4% glucose, pH 6.5, sole sulfur source
Procedure: as §1

[20] = tested on: Ogataea parapolymorpha_XP_013936897; experiment: as above; details: sulfur source concentration 200 µM; S. cerevisiae S288C/BY sul1Δ sul2Δ soa1Δ with transporter ortholog inserted at SOA1 locus; sulfur-free B medium, 4% glucose, pH 6.5, sole sulfur source
Procedure: as §1

[21] = tested on: soa1 del; experiment: as above; details: sulfur source concentration 200 µM; S. cerevisiae S288C/BY sul1Δ sul2Δ soa1Δ with transporter ortholog inserted at SOA1 locus; sulfur-free B medium, 4% glucose, pH 6.5, sole sulfur source
Procedure: as §1

[22] = tested on: Ogataea parapolymorpha_XP_013932458; experiment: as above; details: sulfur source concentration 200 µM; S. cerevisiae S288C/BY sul1Δ sul2Δ soa1Δ with transporter ortholog inserted at SOA1 locus; sulfur-free B medium, 4% glucose, pH 6.5, sole sulfur source
Procedure: as §1

[23] = tested on: Aspergillus nidulans_XP_681611; experiment: as above; details: sulfur source concentration 200 µM; S. cerevisiae S288C/BY sul1Δ sul2Δ soa1Δ with transporter ortholog inserted at SOA1 locus; sulfur-free B medium, 4% glucose, pH 6.5, sole sulfur source
Procedure: as §1

[24] = tested on: Aspergillus nidulans_CBF80346; experiment: as above; details: sulfur source concentration 200 µM; S. cerevisiae S288C/BY sul1Δ sul2Δ soa1Δ with transporter ortholog inserted at SOA1 locus; sulfur-free B medium, 4% glucose, pH 6.5, sole sulfur source
Procedure: as §1

[25] = tested on: Aspergillus nidulans_XP_661711; experiment: as above; details: sulfur source concentration 200 µM; S. cerevisiae S288C/BY sul1Δ sul2Δ soa1Δ with transporter ortholog inserted at SOA1 locus; sulfur-free B medium, 4% glucose, pH 6.5, sole sulfur source
Procedure: as §1

[26] = tested on: Fusarium oxysporum_ENH65823; experiment: as above; details: sulfur source concentration 200 µM; S. cerevisiae S288C/BY sul1Δ sul2Δ soa1Δ with transporter ortholog inserted at SOA1 locus; sulfur-free B medium, 4% glucose, pH 6.5, sole sulfur source
Procedure: as §1

[27] = tested on: Metarhizium robertsii_XP_007821441; experiment: as above; details: sulfur source concentration 200 µM; S. cerevisiae S288C/BY sul1Δ sul2Δ soa1Δ with transporter ortholog inserted at SOA1 locus; sulfur-free B medium, 4% glucose, pH 6.5, sole sulfur source
Procedure: as §1

[28] = tested on: Aspergillus nidulans_XP_660670; experiment: as above; details: sulfur source concentration 200 µM; S. cerevisiae S288C/BY sul1Δ sul2Δ soa1Δ with transporter ortholog inserted at SOA1 locus; sulfur-free B medium, 4% glucose, pH 6.5, sole sulfur source
Procedure: as §1

[29] = sulfur source concentration 200 µM
[30] = sulfur source concentration 40000 µM

SMILES | maximal growth rate [1, 29] | maximal growth rate [2, 29] | maximal growth rate [3, 29] | maximal growth rate [4, 29] | maximal growth rate [5, 29] | maximal growth rate [6, 29] | maximal growth rate [7, 29] | lag phase before growth [8] [h] | lag phase before growth [9] [h] | lag phase before growth [10, 29] [h] | lag phase before growth [11] [h] | lag phase before growth [12, 29] [h] | lag phase before growth [13, 29] [h] | lag phase before growth [14, 29] [h] | lag phase before growth [16, 29] [h] | lag phase before growth [17, 29] [h] | also measured
CCCS(=O)(=O)O [Propanesulfonate] | 0.00267 | 0.0773 | 0.0691 | 0.0042 | 0.00331 | 0.0825 | 0.0026 | 19 | 21.1 | 11.9 | 14 | 11.1 | 10.8 | 15.7 | – | – | –
O=S(=O)(O)O [sulfate] | 0.00273 | 0.00324 | 0.00395 | 0.00477 | 0.00472 | 0.0777 | 0.00309 | – | – | – | – | – | 25.8 | – | 6.92 | 8.36 | maximal growth rate [1, 30]: 0.00346; maximal growth rate [2, 30]: 0.00336; maximal growth rate [3, 30]: 0.0997; maximal growth rate [4, 30]: 0.00353; maximal growth rate [5, 30]: 0.00348; maximal growth rate [6, 30]: 0.124; maximal growth rate [7, 30]: 0.00378; lag phase before growth [15, 30]: 39.2 h; lag phase before growth [10, 30]: 16.8 h; lag phase before growth [12, 30]: 10.7 h; lag phase before growth [16, 30]: 7.29 h; lag phase before growth [13, 30]: 7.95 h; lag phase before growth [17, 30]: 11.7 h; lag phase before growth [14, 30]: 13.8 h
O=S(=O)(O)CO [Hydroxymethane sulfonate] | 0.00325 | 0.107 | 0.0972 | 0.00402 | 0.00313 | 0.114 | 0.0032 | 11.1 | 7.86 | 7.32 | 23.8 | 6.88 | 6.08 | 6.75 | 0.457 | 4.31 | –
CCCCS(=O)(=O)O [Butanesulfonate] | 0.00269 | 0.0878 | 0.0734 | 0.00411 | 0.00447 | 0.087 | 0.00375 | 12.7 | – | 9.71 | 10.1 | 8.4 | 6.98 | 9.34 | – | – | –
CCS(=O)(=O)O [Ethanesulfonate] | 0.00278 | 0.081 | 0.0681 | 0.00424 | 0.00396 | 0.0784 | 0.00304 | 15.6 | 7.36 | 9.96 | 13.1 | 9.26 | 8.69 | 10.3 | – | – | –
CSCC[C@H](N)C(=O)O [Methionine] | 0.138 | 0.138 | 0.129 | 0.131 | 0.139 | 0.13 | 0.137 | 4.3 | 4.74 | 3.83 | 4.47 | 3.45 | 4.02 | 5.45 | 5.14 | 4.38 | lag phase before growth [18]: 3.48 h; lag phase before growth [19]: 5.36 h; lag phase before growth [15, 29]: 4.49 h; lag phase before growth [20]: 2.97 h; lag phase before growth [21]: 4.14 h; lag phase before growth [22]: 3.88 h; lag phase before growth [23]: 3.6 h; lag phase before growth [24]: 5.16 h; lag phase before growth [25]: 4.47 h; lag phase before growth [26]: 5.35 h; lag phase before growth [27]: 4.5 h; lag phase before growth [28]: 4.47 h
N[C@@H](CS(=O)(=O)O)C(=O)O [L-cysteic acid] | 0.003 | 0.00261 | 0.00648 | 0.00397 | 0.00644 | 0.035 | 0.00544 | – | 17.9 | – | – | 6.98 | 10.9 | 12.6 | – | 7.57 | lag phase before growth [15, 29]: 17.2 h; lag phase before growth [25]: 5.14 h; lag phase before growth [26]: 7.6 h
O=S(O)O [sulfite] | 0.00286 | 0.0556 | 0.0839 | 0.0051 | 0.00484 | 0.0989 | 0.00339 | 11 | 0.981 | 6.97 | – | 5.95 | 5.63 | 6.67 | 6.93 | 8.25 | –
